Reference: patent US20220289732A1, “HETEROCYCLIC WDR5 INHIBITORS AS ANTI-CANCER COMPOUNDS” (NOVARTIS AG, priority 2019, published 2022)

Experiments:
[1] = molecular target: wild type MLL1 four-member complex (MLL1-4C) (Homo sapiens, UniProt P61964); assay: MLL1 LC-MS assay (SAH production); format: biochemical; details: read-out: (b) MLL LCMS Peptide Val.v.1 Qualified AC50
In short: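 MLL1-4C (30 nM final) was preincubated 20 min with compound (3-fold dilutions, 8 or 12 points) and SAM in Tris-HCl pH 8.0 buffer. H3K4me0 peptide (histone H3[1-21]-biotin) was then added, giving final 2.5 μM SAM and 10 μM substrate, and reactions ran 120 min at rt. After TFA/d4-SAH quench, SAH was quantified by LC-MS/MS and IC50 fitted from control-normalised activity.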

WDR5 = WDR5 (Homo sapiens, UniProt P61964); assay: WDR5 HTRF binding assay; details: read-out: (a) WDR5 HTRF Pep Val v.1[Inhibitor/IC50]Qualified AC50
In short: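 6 nM WDR5 and 20 nM biotin-MLL1 WIN peptide (3762-3773) were incubated with compound (12-point, 3-fold dilutions) in pH 7.5 Hepes/NaCl/DTT buffer for 20 min at rt. Streptavidin-APC plus anti-His-Eu were then added for 1 hr, with HTRF read at 665/615. IC50 was fit from control-normalized activity; the counter assay used 15 nM biotin-PEG-His peptide.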

MV4-11 cells = assay: MV4-11 6-day cell growth CTG (CellTiter-Glo) assay; format: cell-based; details: Homo sapiens, MV4-11, 144 h, 6 days, read-out: (c) MLL/WDR5 cell proliferation assay//MLL/WDR5 proliferation MV4:11 Qualified AC50
In short: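 Exponentially growing MV4-11 AML cells (RPMI 1640, 10% FBS) seeded at 300 cells/well with 12-point 1:3 compound dilutions, top final concentration 50 μM. Viability read by CellTiter-Glo luminescence after 6 days at 37° C; % inhibition vs DMSO-only wells fitted to dose-response for IC50.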

| Structure (SMILES) | AC50 [1] | IC50 (WDR5) | AC50 (MV4-11 cells) |
| --- | --- | --- | --- |
| CCOc1cc([C@H](C)N2CCc3c(cc(CCN(C)CC)cc3-c3cc(C4CC4)cnc3C)C2=O)ncc1C#N [Example 160, (S)-6-(1-(5-(5-cyclopropyl-2-methylpyridin-3-yl)-7-(2-(ethyl(methyl)amino)ethyl)-1-oxo-3,4-dihydroisoquinolin-2(1H)-yl)ethyl)-4-ethoxynicotinonitrile] | 10 to 1000 nM | < 10 nM | 10 to 1000 nM |
| CCOc1cc([C@H](C)N2CCc3c(cc(CCN(C)CC)cc3-c3ccn(C)c(=O)c3C)C2=O)ncc1C#N [Example 161, (S)-6-(1-(5-(1,3-dimethyl-2-oxo-1,2-dihydropyridin-4-yl)-7-(2-(ethyl(methyl)amino)ethyl)-1-oxo-3,4-dihydroisoquinolin-2(1H)-yl)ethyl)-4-ethoxynicotinonitrile] | 10 to 1000 nM | < 10 nM | 10 to 1000 nM |
| CCOc1cc([C@H](C)N2CCc3c(cc(CCN(C)CC)cc3-c3cc(N)ncc3C)C2=O)ncc1C#N [Example 162, (S)-6-(1-(5-(2-amino-5-methylpyridin-4-yl)-7-(2-(ethyl(methyl)amino)ethyl)-1-oxo-3,4-dihydroisoquinolin-2(1H)-yl)ethyl)-4-ethoxynicotinonitrile] | 10 to 1000 nM | < 10 nM | 10 to 1000 nM |
| CCOc1cc([C@H](C)N2CCc3c(cc(CCN(C)CC)cc3-c3cc(C)ncc3C)C2=O)ncc1C#N [Example 163, (S)-6-(1-(5-(2,5-dimethylpyridin-4-yl)-7-(2-(ethyl(methyl)amino)ethyl)-1-oxo-3,4-dihydroisoquinolin-2(1H)-yl)ethyl)-4-ethoxynicotinonitrile] | 10 to 1000 nM | < 10 nM | 10 to 1000 nM |
| CCOc1cc(CN2CCc3c(cc(CCN(C)CC)cc3-c3cc(OC)ncc3C)C2=O)ncc1C#N [Example 164, 4-ethoxy-6-((7-(2-(ethyl(methyl)amino)ethyl)-5-(2-methoxy-5-methylpyridin-4-yl)-1-oxo-3,4-dihydroisoquinolin-2(1H)-yl)methyl)nicotinonitrile] | 10 to 1000 nM | < 10 nM | 10 to 1000 nM |
| CCOc1cc([C@H](C)N2CCc3c(cc(CCN(C)CC)cc3-c3cn(CC)nc3C(F)F)C2=O)ncc1C#N [Example 165, (S)-6-(1-(5-(3-(difluoromethyl)-1-ethyl-1H-pyrazol-4-yl)-7-(2-(ethyl(methyl)amino)ethyl)-1-oxo-3,4-dihydroisoquinolin-2(1H)-yl)ethyl)-4-ethoxynicotinonitrile] | 10 to 1000 nM | < 10 nM | 10 to 1000 nM |
| CCOc1cc([C@H](C)N2CCc3c(cc(CCN(C)CC)cc3-c3cc(C)ncc3Cl)C2=O)ncc1C#N [Example 166, (S)-6-(1-(5-(5-chloro-2-methylpyridin-4-yl)-7-(2-(ethyl(methyl)amino)ethyl)-1-oxo-3,4-dihydroisoquinolin-2(1H)-yl)ethyl)-4-ethoxynicotinonitrile] | 10 to 1000 nM | < 10 nM | 10 to 1000 nM |
| CCOc1cc([C@H](C)N2CCc3c(cc(CCN(C)CC)cc3-c3cc(OC)cnc3C)C2=O)ncc1C#N [Example 167, (S)-4-ethoxy-6-(1-(7-(2-(ethyl(methyl)amino)ethyl)-5-(5-methoxy-2-methylpyridin-3-yl)-1-oxo-3,4-dihydroisoquinolin-2(1H)-yl)ethyl)nicotinonitrile] | 10 to 1000 nM | < 10 nM | 10 to 1000 nM |
| CCOc1cc(C(C)N2CCc3c(cc(CCN(C)CC)cc3-c3cc(Cl)nnc3Cl)C2=O)ncc1C#N (stereo not drawn) [Example 168, 6-(1-(5-(3,6-dichloropyridazin-4-yl)-7-(2-(ethyl(methyl)amino)ethyl)-1-oxo-3,4-dihydroisoquinolin-2(1H)-yl)ethyl)-4-ethoxynicotinonitrile] | 10 to 1000 nM | < 10 nM | 10 to 1000 nM |
| CCOc1cc([C@H](C)N2CCc3c(cc(CCN(C)CC)cc3-c3cn(C)c(=O)c(F)c3C)C2=O)ncc1C#N [Example 169, (S)-4-ethoxy-6-(1-(7-(2-(ethyl(methyl)amino)ethyl)-5-(5-fluoro-1,4-dimethyl-6-oxo-1,6-dihydropyridin-3-yl)-1-oxo-3,4-dihydroisoquinolin-2(1H)-yl)ethyl)nicotinonitrile] | 10 to 1000 nM | < 10 nM | 10 to 1000 nM |
| CCOc1cc([C@H](C)N2CCc3c(cc(CCN(C)CC)cc3-c3cn(C)c(=O)c(Cl)c3C)C2=O)ncc1C#N [Example 170, (S)-6-(1-(5-(5-chloro-1,4-dimethyl-6-oxo-1,6-dihydropyridin-3-yl)-7-(2-(ethyl(methyl)amino)ethyl)-1-oxo-3,4-dihydroisoquinolin-2(1H)-yl)ethyl)-4-ethoxynicotinonitrile] | 10 to 1000 nM | < 10 nM | 10 to 1000 nM |
| CCOc1cc([C@H](C)N2CCc3c(cc(CCN(C)CC)cc3-c3cn(CC)c(=O)cc3C)C2=O)ncc1C#N [Example 171, (S)-4-ethoxy-6-(1-(7-(2-(ethyl(methyl)amino)ethyl)-5-(1-ethyl-4-methyl-6-oxo-1,6-dihydropyridin-3-yl)-1-oxo-3,4-dihydroisoquinolin-2(1H)-yl)ethyl)nicotinonitrile] | 10 to 1000 nM | < 10 nM | 10 to 1000 nM |
| CCOc1cc([C@H](C)N2CCc3c(cc(CCN(C)CC)cc3-c3cc(C)ncc3C(F)F)C2=O)ncc1C#N [Example 172, (S)-6-(1-(5-(5-(difluoromethyl)-2-methylpyridin-4-yl)-7-(2-(ethyl(methyl)amino)ethyl)-1-oxo-3,4-dihydroisoquinolin-2(1H)-yl)ethyl)-4-ethoxynicotinonitrile] | 10 to 1000 nM | < 10 nM | 10 to 1000 nM |
| CCOc1cc([C@H](C)N2CCc3c(cc(CCN(C)CC)cc3-c3cc(C)nnc3C)C2=O)ncc1C#N [Example 173, (S)-6-(1-(5-(3,6-dimethylpyridazin-4-yl)-7-(2-(ethyl(methyl)amino)ethyl)-1-oxo-3,4-dihydroisoquinolin-2(1H)-yl)ethyl)-4-ethoxynicotinonitrile] | 10 to 1000 nM | < 10 nM | 10 to 1000 nM |
| CCOc1cc([C@H](C)N2CCc3c(cc(CCN(C)CC)cc3-c3cn(C(F)F)c(=O)cc3Cl)C2=O)ncc1C#N [Example 174, (S)-6-(1-(5-(4-chloro-1-(difluoromethyl)-6-oxo-1,6-dihydropyridin-3-yl)-7-(2-(ethyl(methyl)amino)ethyl)-1-oxo-3,4-dihydroisoquinolin-2(1H)-yl)ethyl)-4 ethoxynicotinonitrile] | 10 to 1000 nM | < 10 nM | 10 to 1000 nM |
| CCOc1cc([C@H](C)N2CCc3c(cc(CCN(C)CC)cc3-c3cn(C)c(=O)cc3Cl)C2=O)ncc1C#N [Example 175, (S)-6-(1-(5-(4-chloro-1-methyl-6-oxo-1,6-dihydropyridin-3-yl)-7-(2-(ethyl(methyl)amino)ethyl)-1-oxo-3,4-dihydroisoquinolin-2(1H)-yl)ethyl)-4-ethoxynicotinonitrile] | 10 to 1000 nM | < 10 nM | 10 to 1000 nM |
| CCOc1cc([C@H](C)N2CCc3c(cc(CCN(C)CC)cc3-c3c[nH]c(=O)cc3C(F)(F)F)C2=O)ncc1C#N [Example 176, (S)-4-ethoxy-6-(1-(7-(2-(ethyl(methyl)amino)ethyl)-1-oxo-5-(6-oxo-4-(trifluoromethyl)-1,6-dihydropyridin-3-yl)-3,4-dihydroisoquinolin-2(1H)-yl)ethyl)nicotinonitrile] | 10 to 1000 nM | < 10 nM | < 10 nM |
| CCOc1cc([C@H](C)N2CCc3c(cc(CCN(C)CC)cc3-c3cc(C(F)F)cnc3C)C2=O)ncc1C#N [Example 177, (S)-6-(1-(5-(5-(difluoromethyl)-2-methylpyridin-3-yl)-7-(2-(ethyl(methyl)amino)ethyl)-1-oxo-3,4-dihydroisoquinolin-2(1H)-yl)ethyl)-4-ethoxynicotinonitrile] | 10 to 1000 nM | < 10 nM | 10 to 1000 nM |
| CCOc1cc([C@H](C)N2CCc3c(cc(CCN(C)CC)cc3-c3ccc(N)nc3Cl)C2=O)ncc1C#N [Example 178, (S)-6-(1-(5-(6-amino-2-chloropyridin-3-yl)-7-(2-(ethyl(methyl)amino)ethyl)-1-oxo-3,4-dihydroisoquinolin-2(1H)-yl)ethyl)-4-ethoxynicotinonitrile] | 10 to 1000 nM | < 10 nM | 10 to 1000 nM |
| CCOc1cc(CN2CCc3c(cc(CCN(C)CC)cc3-c3cc(C)ncc3C)C2=O)ncc1C#N [Example 179, 6-((5-(2,5-dimethylpyridin-4-yl)-7-(2-(ethyl(methyl)amino)ethyl)-1-oxo-3,4-dihydroisoquinolin-2(1H)-yl)rnethyl)-4-ethoxynicotinonitrile] | 10 to 1000 nM | < 10 nM | 10 to 1000 nM |
| CCOc1cc(CN2CCc3c(cc(CCN(C)CC)cc3-c3cc(N)ncc3C)C2=O)ncc1C#N [Example 180, 6-((5-(2-amino-5-methylpyridin-4-yl)-7-(2-(ethyl(methyl)amino)ethyl)-1-oxo-3,4-dihydroisoquinolin-2(1H)-yl)rnethyl)-4-ethoxynicotinonitrile] | 10 to 1000 nM | < 10 nM | 10 to 1000 nM |
